In patent US20260083865A1, “PROSTATE SPECIFIC MEMBRANE ANTIGEN (PSMA) LIGANDS AND USE THEREOF” (priority 2022, published 2026):
“Also recorded” adds a separate entry of the source. Numbered stars: 1 amine (or outer) side, 2 acyl side, 3 side chain; on linkers, the order of the positions; unused ones are H or OH. Bridge positions count the residues as written; N and C are the ends. Square brackets hold non-standard residues; d marks the D form. Peptide text beside a SMILES is read from it. * marks the point of attachment. DOTA = O=C(O)CN1CCN(CC(=O)O)CCN(CC(=O)*)CCN(CC(=O)O)CC1; Phe(4-Cl) = N[C@@H](Cc1ccc(Cl)cc1)C(=O)O; Arg(Me) = CNC(=N)NCCC[C@H](N)C(=O)O; X1 = O=C(CC1CCN([*:1])CC1)[*:2]; Lys(Me) = CNCCCC[C@H](N)C(=O)O; Tle = CC(C)(C)[C@H](N)C(=O)O; Aib = CC(C)(N)C(=O)O

Test system: PSMA-expressing ST1273 tumors
Test: Efficacy study in mice with PSMA-expressing ST1273 tumors (tumor volume)
Format: in vivo
From the text: The efficacy of ^177Lu-PSM-0194 (PSM-0194 labeled with radioactive Lutetium-177) was investigated in the PDX tumor model ST1273. […] The ST1273 PDX model was developed at XenoSTART (San Antonio, Texas, USA) and PSMA expression was confirmed by immunohistochemistry.
ST1273 tumor fragments were transplanted subcutaneously at the right flank of female NMRI nu/nu mice. In brief, the parent animals with ST1273 PDX tumors for transplantation were euthanized by cervical dislocation. The tumors were resected and trimmed to remove the connective tissues. The tumors were put in a Petri dish with PBS and cut with a scalpel into pieces of approximately 5×5×5 mm. Recipient mice were anesthetized (isoflurane, 1-3% in ambient air supplemented with 100% O2) and an incision cut in the skin on the back. Room was made for the tumor between the muscle and skin with forceps. The tumor pieces were dipped in PBS before being placed under the skin with forceps. The incision was closed with a 7 mm wound clip. Another incision was cut in the skin on the back, where a testosterone rod was inserted subcutaneously with forceps (PreclinApps, Testosterone MedRod 75 μg/day, drug release duration 100 days). The incision was closed with non-absorbable prolene 5-0 sutures and animals were chipped for identification and allowed to recover from anesthesia. Tumor growth and animal weight were measured twice a week starting 7 days after inoculation. Tumor size was measured by caliper and the volume was estimated using the following formula 0.52×(length×width^2).
6-7 weeks after inoculation, three mice with ST1273 PDX tumors were dosed with ^177Lu-PSM-0194 and were subjected to SPECT/computed tomography scans. Tumor size measurement was continued for 42 days after dosing. In brief, PSM-0194 was labeled with radioactive Lutetium-177 with a molar activity of 30 MBq/nmol. An activity dose of 30 MBq per mouse was injected intravenously. The mice injected with ^177Lu—PSM-0194 underwent SPECT/computed tomography scans at 4, 24, and 72 hours p.i. to evaluate the distribution of ^177Lu-PSM-0194 in different tissues. Regions of interest (ROI) were drawn based on computed tomography images for the tumor and following organs: heart (estimate of blood), kidney (left), kidney (right), and tail. Uptake of ^177Lu-PSM-0194 (% ID/g, decay-corrected) in the corresponding ROI was determined by quantitative imaging analysis. […] Highest uptake in non-tumor organs was found in the kidneys with a favorable tumor-to-kidney ratio of 3.3-3.4.
The tumor size measurements were continued for 42 days after dosing. The effect of therapy ^177Lu—PSM-0194 on the tumor volume was evaluated for each individual mouse. […] Tumor volume continued declining to a nadir on day 20, with a mean tumor volume (MTV) of 16±16 mm^3 (mean SEM). […] For the calculation of relative volumes, the tumor volumes on the day of dosing (day 0) were set to 100%.

For `CNCCCC[C@@H]1NC(=O)[C@@H](NC(=O)[C@H](Cc2ccc(Cl)cc2)NC(=O)C(C)(C)NC(=O)[C@@H](NC(=O)CC2CCN(C(=O)CN3CCN(CC(=O)O)CCN(CC(=O)O)CCN(CC(=O)O)CC3)CC2)[C@@H](C)O)CSSC[C@@H](C(=O)N[C@H](C(=O)N[C@H](C(N)=O)[C@@H](C)O)C(C)(C)C)NC(=O)[C@H](CC(N)=O)NC(=O)C(C)(C)NC(=O)[C@H](CCCNC(=N)NC)NC1=O` [^177Lu-PSM-0194, metal not drawn] ({DOTA}-[X1]T[Aib][Phe(4-Cl)]C[Lys(Me)][Arg(Me)][Aib]NC[Tle]T-NH2; disulfide 5-10), the “effect of therapy on the tumor volume” value (ST1273 PDX mice, 30 MBq i.v., followed 42 days after dosing) was “reduction of the tumor volumes; also recorded: strong tumor regression and sustained tumor suppression”, the “start of re-growth of the tumor” value (animal M10, 30 MBq i.v.) was 23 days and the tumor volume (animal M10, day 42 after dosing, 30 MBq i.v.) was 407 mm^3. The “mean tumor volume (MTV) at nadir” value (day 20 after dosing, 30 MBq i.v., three mice, mean SEM) was 16±16 mm^3, the Tumor volumes (mouse M9, study day 2) was 390 mm^3 and the Relative tumor volume (mouse M9, study day 2, day 0 = 100%) was 112%. For the same compound, the Tumor volumes (mouse M9, study day 6) was 124 mm^3, the Relative tumor volume (mouse M9, study day 6, day 0 = 100%) was 36% and the Tumor volumes (mouse M9, study day 9) was 65 mm^3. For the same compound, the Relative tumor volume (mouse M9, study day 9, day 0 = 100%) was 19%, the Tumor volumes (mouse M9, study day 13) was 31 mm^3 and the Relative tumor volume (mouse M9, study day 13, day 0 = 100%) was 9.0%. The Tumor volumes (mouse M9, study day 16) was 43 mm^3, the Relative tumor volume (mouse M9, study day 16, day 0 = 100%) was 12% and the Tumor volumes (mouse M9, study day 20) was 0 mm^3. It also gave a Relative tumor volume (mouse M9, study day 20, day 0 = 100%) of 0.0%, a Tumor volumes (mouse M9, study day 23) of 0 mm^3 and a Relative tumor volume (mouse M9, study day 23, day 0 = 100%) of 0.0%. It also gave a Tumor volumes (mouse M9, study day 27) of 0 mm^3, a Relative tumor volume (mouse M9, study day 27, day 0 = 100%) of 0.0% and a Tumor volumes (mouse M9, study day 30) of 0 mm^3. It also gave a Relative tumor volume (mouse M9, study day 30, day 0 = 100%) of 0.0%, a Tumor volumes (mouse M9, study day 34) of 0 mm^3 and a Relative tumor volume (mouse M9, study day 34, day 0 = 100%) of 0.0%. For the same compound, the Tumor volumes (mouse M9, study day 37) was 0 mm^3, the Relative tumor volume (mouse M9, study day 37, day 0 = 100%) was 0.0% and the Tumor volumes (mouse M9, study day 41) was 0 mm^3. It also gave a Relative tumor volume (mouse M9, study day 41, day 0 = 100%) of 0.0%, a Tumor volumes (mouse M9, study day 42) of 0 mm^3 and a Relative tumor volume (mouse M9, study day 42, day 0 = 100%) of 0.0%. It also gave a Tumor volumes (mouse M10, study day 2) of 633 mm^3, a Relative tumor volume (mouse M10, study day 2, day 0 = 100%) of 134% and a Tumor volumes (mouse M10, study day 6) of 372 mm^3. For the same compound, the Relative tumor volume (mouse M10, study day 6, day 0 = 100%) was 79%, the Tumor volumes (mouse M10, study day 9) was 346 mm^3 and the Relative tumor volume (mouse M10, study day 9, day 0 = 100%) was 73%. It also gave a Tumor volumes (mouse M10, study day 13) of 242 mm^3, a Relative tumor volume (mouse M10, study day 13, day 0 = 100%) of 51% and a Tumor volumes (mouse M10, study day 16) of 94 mm^3. For the same compound, the Relative tumor volume (mouse M10, study day 16, day 0 = 100%) was 20%, the Tumor volumes (mouse M10, study day 20) was 49 mm^3 and the Relative tumor volume (mouse M10, study day 20, day 0 = 100%) was 10%. It also gave a Tumor volumes (mouse M10, study day 23) of 66 mm^3, a Relative tumor volume (mouse M10, study day 23, day 0 = 100%) of 14% and a Tumor volumes (mouse M10, study day 27) of 113 mm^3. It also gave a Relative tumor volume (mouse M10, study day 27, day 0 = 100%) of 24%, a Tumor volumes (mouse M10, study day 30) of 114 mm^3 and a Relative tumor volume (mouse M10, study day 30, day 0 = 100%) of 24%. For the same compound, the Tumor volumes (mouse M10, study day 34) was 172 mm^3, the Relative tumor volume (mouse M10, study day 34, day 0 = 100%) was 36% and the Tumor volumes (mouse M10, study day 37) was 289 mm^3. It also gave a Relative tumor volume (mouse M10, study day 37, day 0 = 100%) of 61%, a Tumor volumes (mouse M10, study day 41) of 608 mm^3 and a Relative tumor volume (mouse M10, study day 41, day 0 = 100%) of 129%. It also gave a Tumor volumes (mouse M10, study day 42) of 607 mm^3, a Relative tumor volume (mouse M10, study day 42, day 0 = 100%) of 129% and a Tumor volumes (mouse M12, study day 2) of 476 mm^3. The Relative tumor volume (mouse M12, study day 2, day 0 = 100%) was 53%, the Tumor volumes (mouse M12, study day 6) was 427 mm^3 and the Relative tumor volume (mouse M12, study day 6, day 0 = 100%) was 47%. It also gave a Tumor volumes (mouse M12, study day 9) of 196 mm^3, a Relative tumor volume (mouse M12, study day 9, day 0 = 100%) of 23% and a Tumor volumes (mouse M12, study day 13) of 82 mm^3. For the same compound, the Relative tumor volume (mouse M12, study day 13, day 0 = 100%) was 9.1%, the Tumor volumes (mouse M12, study day 16) was 109 mm^3 and the Relative tumor volume (mouse M12, study day 16, day 0 = 100%) was 12%. The Tumor volumes (mouse M12, study day 20) was 0 mm^3, the Relative tumor volume (mouse M12, study day 20, day 0 = 100%) was 0.0% and the Tumor volumes (mouse M12, study day 23) was 55 mm^3. The Relative tumor volume (mouse M12, study day 23, day 0 = 100%) was 6.1%, the Tumor volumes (mouse M12, study day 27) was 56 mm^3 and the Relative tumor volume (mouse M12, study day 27, day 0 = 100%) was 6.2%. It also gave a Tumor volumes (mouse M12, study day 30) of 58 mm^3, a Relative tumor volume (mouse M12, study day 30, day 0 = 100%) of 6.4% and a Tumor volumes (mouse M12, study day 34) of 47 mm^3. For the same compound, the Relative tumor volume (mouse M12, study day 34, day 0 = 100%) was 5.2%, the Tumor volumes (mouse M12, study day 37) was 67 mm^3 and the Relative tumor volume (mouse M12, study day 37, day 0 = 100%) was 7.4%. It also gave a Tumor volumes (mouse M12, study day 41) of 74 mm^3, a Relative tumor volume (mouse M12, study day 41, day 0 = 100%) of 8.2% and a Tumor volumes (mouse M12, study day 42) of 81 mm^3. For the same compound, the Relative tumor volume (mouse M12, study day 42, day 0 = 100%) was 9.0%.
